In BindingDB's records for doi:10.1016/S0960-894X(01)80277-8 (1994):

Assay: Binding to delta opioid receptor by using [3H]DPDPE as radioligand in guinea pig brain minus cerebellum

Row | Compound | IC50 [µM]
1 | CN1CC[C@]23c4c5ccc(-c6ccoc6)c4O[C@H]2[C@@H](O)C=C[C@H]3[C@H]1C5 [10-(3-furyl)-4-methyl-(1S,5R,13R,14S,17R)-12-oxa-4-azapentacyclo[9.6.1.01,13.05,17.07,18]octadeca-7(18),8,10,15-tetraen-14-ol] | 7.4
2 | CC(=O)c1ccc2c3c1O[C@H]1[C@@H](O)C=C[C@H]4[C@@H](C2)N(C)CC[C@@]341 [1-[14-hydroxy-4-methyl-(1S,5R,13R,14S,17R)-12-oxa-4-azapentacyclo[9.6.1.01,13.05,17.07,18]octadeca-7(18),8,10,15-tetraen-10-yl]-1-ethanone] | 7.9
